Measured values as given in article PMC8508785, “Synthesis and In Silico Docking of New Pyrazolo[4,3-e]pyrido[1,2-a]pyrimidine-based Cytotoxic Agents” (International Journal of Molecular Sciences, 2021).

Experiments:
[1] = system: NIH 3T3 non-malignant mouse embryonic fibroblasts; test: SRB cytotoxicity assay, NIH 3T3; type: cell-based; conditions: NIH3T3, 72 h of treatment, non-malignant NIH 3T3
Method: (§1) The synthesized compounds were evaluated for their cytotoxic activity by a photometric […] (SRB) on different human cancer cell lines, malignant melanoma (A375), colon (HT29), breast (MCF-7), human ovarian carcinoma (A2780) and pharynx carcinoma (FaDu); for comparison, non-malignant mouse embryonic fibroblasts (NIH 3T3) and human embryonic kidney cells (HEK293) were included; doxorubicin (DX) was used as a positive control.
(§2) The cell lines were obtained from Department of oncology (MartinLutherUniversity Halle-Wittenberg). Cultures were maintained as monolayers in RPMI 1640 medium with L-glutamine (Capricorn Scientific GmbH, Ebsdorfergrund, Germany) supplemented with 10% heat-inactivated fetal bovine serum (Sigma-Aldrich Chemie GmbH, Steinheim, Germany) and penicillin/streptomycin (1%, Capricorn Scientific GmbH, Ebsdorfergrund, Germany) at 37 °C in a humidified atmosphere with 5% CO2.
(§3) The cytotoxicity of the compounds was evaluated using the sulforhodamine-B (Kiton-Red S, ABCR: Karlsruhe, Germany) microculture colorimetric assay using […] cells in 96-well plates with the seeding of the cells on day 0,by applying appropriate cell densities to prevent confluence of the cells during the period of the experiment. On day 1, the cells were treated with six different concentrations (1, 3, 7, 12, 20 and 30 μM); thereby, the final concentration of DMSO was always <0.5%, generally regarded as non-toxic to the cells. On day 4, the supernatant medium was discarded; the cells were fixed with 10% trichloroacetic acid. After another day at 4 °C, the cells were washed in a strip washer and dyed with the SRB solution (100 μL, 0.4% in 1% acetic acid) for about 20 min to be followed by washing of the plates (four times, 1% acetic acid) and air-drying overnight. Furthermore, Tris base solution (200 μL, 10 mM) was added to each well, and absorbance was measured at λ = 570 nm employing a reader (96 wells, Tecan Spectra, Crailsheim, Germany). The EC50 values were averaged from three independent experiments performed each in triplicate, calculated from semi-logarithmic dose–response curves applying a non-linear four-parameter Hill-slope equation (GraphPad Prism5 vom Graphpad Software Inc., San Diego, USA; the variables top and bottom were set to 100 and 0, respectively).

[2] = system: MCF-7 cells (breast); test: SRB cytotoxicity assay, MCF-7; type: cell-based; conditions: Homo sapiens, MCF7, 72 h of treatment
Method: as §1, §2, §3

[3] = system: A375 cells (malignant melanoma); test: SRB cytotoxicity assay, A375; type: cell-based; conditions: Homo sapiens, A-375, 72 h of treatment
Method: as §1, §2, §3

[4] = system: FaDu cells (pharynx carcinoma); test: SRB cytotoxicity assay, FaDu; type: cell-based; conditions: Homo sapiens, 72 h of treatment
Method: as §1, §2, §3

[5] = system: HT29 cells (colon); test: SRB cytotoxicity assay, HT29; type: cell-based; conditions: Homo sapiens, HT-29, 72 h of treatment
Method: as §1, §2, §3

[6] = system: HEK293 human embryonic kidney cells; test: SRB cytotoxicity assay, HEK293; type: cell-based; conditions: 72 h of treatment, non-malignant HEK293
Method: as §1, §2, §3

[7] = system: human tumor cell lines A375, HT29, MCF7, A2780, FaDu; test: SRB cytotoxicity assay, panel of human tumor cell lines; type: cell-based; conditions: one statement for several/all five cancer cell lines, read-out: EC50 across the cancer cell lines
Method: as §1, §2
as §3, with “After another day at 4 °C, the cells were washed in a strip washer and dyed with the SRB solution (100 μL, 0.4% in 1% acetic acid) for about 20 min to be followed by washing of the plates (four times, 1% acetic acid) and air-drying overnight.” left out

[8] = system: A2780 cells (human ovarian carcinoma); test: SRB cytotoxicity assay, A2780; type: cell-based; conditions: 72 h of treatment
Method: as §1, §2, §3

| SMILES | EC50 [1] [µM] | EC50 [2] [µM] | melting point [°C] | EC50 [3] [µM] | EC50 [4] [µM] | EC50 [5] [µM] | EC50 [6] [µM] | EC50 [7] [µM] | EC50 [8] [µM] |
| --- | --- | --- | --- | --- | --- | --- | --- | --- | --- |
| Cc1nn(-c2ccccc2)c(N)c1C#N [Compound 3, 5-Amino-3-methyl-1-phenyl-1H-pyrazole-4-carbonitrile] | > 30 | > 30 | 132 | > 30 | > 30 | > 30 | > 30 | > 30 | > 30 |
| CC(=O)/C=C(\C)Nc1c(C#N)c(C)nn1-c1ccccc1 [Compound 5, 3-Methyl-5-{[(1E)-1-methyl-3-oxobut-1-en-1-yl]amino}-1-phenyl-1H-pyrazole-4-carbonitrile] | > 30 | > 30 | 109 | > 30 | > 30 | > 30 | > 30 | > 30 | > 30 |
| CC(=O)C1=C(C)N2C(=C(C#N)C1c1ccc(Cl)cc1)N=C(N)c1c(C)nn(-c3ccccc3)c12 (stereo not shown) [Compound 7a, 8-Acetyl-4-amino-7-(4-chlorophenyl)-3,9-dimethyl-1-phenyl-1,7-dihydropyrazolo[4,3-e] Pyrido[1,2-a]pyrimidine-6-carbonitrile] | 23 ± 1.4 | 17.2 ± 1.4 | 167 | 19.3 ± 3 | > 30 | 29.9 ± 1.4 | 15.8 ± 2 |  | 18 ± 3 |
| CC(=O)C1=C(C)N2C(=C(C#N)C1c1ccc(C)cc1)N=C(N)c1c(C)nn(-c3ccccc3)c12 (stereo not shown) [Compound 7b] | 21.3 ± 0.9 | 12.2 ± 1.3 | 167 | 12.9 ± 1.6 | 22.3 ± 2.7 | 17.5 ± 1.8 | 12.4 ± 0.9 |  | 14.6 ± 2.2 |
| CC(=O)C1=C(C)N2C(=C(C#N)C1c1ccccc1)N=C(N)c1c(C)nn(-c3ccccc3)c12 (stereo not shown) [Compound 7c, 8-Acetyl-4-amino-3,9-dimethyl-1,7-diphenyl-1,7-dihydropyrazolo[4,3-e]Pyrido[1,2-a]pyrimidine-6-carbonitrile] | > 30 | 19.5 ± 1.1 | 198 | 19.3 ± 3.8 | > 30 | > 30 | 7.7 ± 1.1 |  | 25.4 ± 2.5 |
| COc1ccc(C2C(C#N)=C3N=C(N)c4c(C)nn(-c5ccccc5)c4N3C(C)=C2C(C)=O)cc1 (stereo not shown) [Compound 7d, 8-Acetyl-4-Amino-7-(4-methoxyphenyl)-3,9-dimethyl-1-phenyl-1,7-dihydropyrazolo[4,3-e] Pyrido[1,2-a]pyrimidine-6-carbonitrile] | > 30 | 18.4 ± 2.3 | 160 | 21.5 ± 3.6 | > 30 | 28.3 ± 3.5 | 16.7 ± 1.2 |  | 21.7 ± 3.9 |
| CC(=O)C1=C(C)N2C(=C(C#N)C1c1ccc(Br)cc1)N=C(N)c1c(C)nn(-c3ccccc3)c12 (stereo not shown) [Compound 7e, 8-Acetyl-4-amino-7-(4-bromophenyl)-3,9-dimethyl-1-phenyl-1,7-dihydropyrazolo[4,3-e] Pyrido[1,2-a]pyrimidine-6-carbonitrile] | 12.3 ± 0.7 | 9.2 ± 0.7 | 192 | 9.4 ± 1.2 | 13.5 ± 1.5 | 13.3 ± 1.8 | 6.6 ± 0.6 | 9.1 to 13.5 | 9.1 ± 1.6 |
| CC(=O)C1=C(C)N2C(=C(C#N)C1c1ccc(F)cc1)N=C(N)c1c(C)nn(-c3ccccc3)c12 (stereo not shown) [Compound 7f, 8-Acetyl-4-amino-7-(4-fluorophenyl)-3,9-dimethyl-1-phenyl-1,7-sihydropyrazolo[4,3-e] Pyrido[1,2-a]pyrimidine-6-carbonitrile] | 24.1 ± 2.8 | 19.2 ± 1.3 | 259 | 18.1 ± 3.3 | > 30 | 24.7 ± 4.4 | 14.7 ± 1.4 |  | 19.2 ± 3.9 |
| CC(=O)C1=C(C)N2C(=C(C#N)C1c1ccc([N+](=O)[O-])cc1)N=C(N)c1c(C)nn(-c3ccccc3)c12 (stereo not shown) [Compound 7g, 8-Acetyl-4-amino-3,9-dimethyl-7-(4-nitrophenyl)-1-phenyl-1,7-dihydropyrazolo[4,3-e] Pyrido[1,2-a]pyrimidine-6-carbonitrile] | > 30 | 15.7 ± 2.2 | 164 | 16.2 ± 2 | > 30 | 25.9 ± 3.4 | 17 ± 1.3 |  | 14.5 ± 2.2 |
| COc1ccc(C2C(C#N)=C3N=C(N)c4c(C)nn(-c5ccccc5)c4N3C(C)=C2C(C)=O)cc1OC (stereo not shown) [Compound 7h, 8-Acetyl-4-amino-7-(3,4-dimethoxyphenyl)-3,9-dimethyl-1-phenyl-1,7-dihydropyrazolo[4,3-e] Pyrido[1,2-a]pyrimidine-6-carbonitrile] | > 30 | 25.1 ± 2.8 | 260 | 22.1 ± 4.9 | > 30 | > 30 | 24 ± 3.4 |  | 27.5 ± 8.1 |
| CC(=O)C1=C(C)N2C(=C(C#N)C1c1ccc(Cl)c(Cl)c1)N=C(N)c1c(C)nn(-c3ccccc3)c12 (stereo not shown) [Compound 7i, 8-Acetyl-4-amino-7-(3,4-dichlorophenyl)-3,9-dimethyl-1-phenyl-1,7-dihydropyrazolo[4,3-e] Pyrido[1,2-a]pyrimidine-6-carbonitrile] |  |  | 235 |  |  |  |  |  |  |
| CC(=O)C1=C(C)N2C(=C(C#N)C1c1ccc([N+](=O)[O-])s1)N=C(N)c1c(C)nn(-c3ccccc3)c12 (stereo not shown) [Compound 7j, 8-Acetyl-4-amino-3,9-dimethyl-7-(5-nitro-2-thienyl)-1-phenyl-1,7-dihydropyrazolo[4,3-e] Pyrido[1,2-a]pyrimidine-6-carbonitrile] |  |  | 262 |  |  |  |  |  |  |
| CC(=O)C1=C(C)N2C(=C(C#N)C1c1ccc3ccccc3c1)N=C(N)c1c(C)nn(-c3ccccc3)c12 (stereo not shown) [Compound 7k, 8-Acetyl-4-amino-3,9-dimethyl-7-(2-naphthyl)-1-phenyl-1,7-dihydropyrazolo[4,3-e] Pyrido[1,2-a]pyrimidine-6-carbonitrile] |  |  | 270 |  |  |  |  |  |  |
| CC(=O)C1=C(C)N2C(=C(C#N)C1c1cccnc1)N=C(N)c1c(C)nn(-c3ccccc3)c12 (stereo not shown) [Compound 7l, 8-Acetyl-4-amino-3,9-dimethyl-1-phenyl-7-pyridin-3-yl-1,7-dihydropyrazolo[4,3-e] Pyrido[1,2-a]pyrimidine-6-carbonitrile] |  |  | 306 |  |  |  |  |  |  |
| COc1cccc2c1C(=O)c1c(O)c3c(c(O)c1C2=O)C[C@@](O)(C(=O)CO)C[C@@H]3O[C@H]1C[C@H](N)[C@H](O)[C@H](C)O1 [DX, doxorubicin, reference compound] | 0.4 ± 0.07 | 1.1 ± 0.3 |  |  |  | 0.9 ± 0.01 |  |  | 0.01 ± 0.01 |
